For the data set, the system named is rat model of chronic colonic inflammation (colitis induced by TNBS). Kind of data set: TNBS hapten-induced colitis model of inflammatory bowel disease (Example 1). The data set is classed as in vivo. The settings on record: for gross morphologic damage score index: male HSD rats, colitis by 30 mg/kg TNBS intracolonic, colon scored (0-5, Table 1) four days after induction, saline control 3.24±0.66, PYY[3-36] 900 μg/kg s.c. twice daily, Depo-Medrol 600 μg/kg i.m., 5-ASA 200 mg/kg intracolonic; for spleen weight (systemic immune suppression): rat, in vivo. The procedure:
Animal preparation: 10-11 weeks old male HSD rats, ranging 250-300 grams, were housed in a 12:12 light:dark cycle, and allowed ad libitum access to a standard rodent diet (Teklad L M 485, Madison, Wis.) and water. The animals were fasted for 24 hours before the experiment. Procedure: A simple and reproducible rat model of chronic colonic inflammation has been previously described by Morris G P, et al., “Hapten-induced model of chronic inflammation and ulceration in the rat colon.” Gastroenterology. 1989; 96:795-803. […] Rats were anesthetized with 3% isofluorane and placed on a regulated heating pad set at 37° C. A gavage needle was inserted rectally into the colon 7 cm. The hapten trinitrobenzenesulfonic acid (TNBS) dissolved in 50% ethanol (v/v) was delivered into the lumen of the colon through the gavage needle at a dose of 30 mg/kg, in a total volume of 0.4-0.6 mL, as described in Mazelin, supra. Control groups received saline solution (NaCl 0.9%) intracolonically. Four days after induction of colitis, the colon was resected from anesthetized rats, which were then euthanized by decapitation. Weights of excised colon and spleen were measured, and the colons photographed for scoring of gross morphologic damage according to Table 1 before division into 3 parts. The segment of colon 1 cm from the cecum was fixed in 10% formalin. Other segments were immediately frozen on dry ice. Inflammation was defined as regions of hyperemia and bowel wall thickening. […] [table] For this assay, 5 treatment groups were set up as follows: • Group A (n=3). intracolonic saline with subcutaneous treatment of saline; • Group B (n=8). subcutaneous treatment of saline prior to induction of colitis by 30 mg/kg TNBS; • Group C (n=10). […] Positive control—intramuscular injection of Depo-Medrol 600 μg/kg 60 min prior to induction of colitis by 30 mg/kg TNBS; • Group E (n=10). Positive control, 5-amino salicylic acid (Sigma) suspension at 200 mg/kg intracolonic administration in 0.5 mL saline, 60 min before induction of colitis and daily thereafter. Results

Structures are written as SMILES.

For the compound `Nc1ccc(O)c(C(=O)O)c1` [5-ASA, 5-aminosalicylic acid], the “gross morphologic damage score index” value was determined as 1.62±0.62 and the “spleen weight (systemic immune suppression)” value was “not decreased”.
For `CC(=O)OCC(=O)[C@@]1(O)CC[C@H]2[C@@H]3C[C@H](C)C4=CC(=O)C=C[C@]4(C)[C@H]3[C@@H](O)C[C@@]21C` [Depo-Medrol], in that order: 1.12±0.26 and “decreased”.

(Values after patent US20060122106A1, “Prevention and/or treatment of inflammatory bowel disease using pyy or agonists thereof” (Amylin Pharmaceuticals, Inc, priority 2002, published 2006).)
